Experimental data published in patent US20220112175A1, “PYRIDAZINES HERBICIDAL COMPOUNDS” (SYNGENTA CROP PROTECTION AG, priority 2019, published 2022).

Legend:
Test in all cases: Post-emergence efficacy, glasshouse pot test
Assay type in all cases: in vivo
[1] = test system: Echinochloa crus-galli (ECHCG); conditions: 312 h, Application rate 500 g/Ha, post-emergence spray, evaluated after 13 days, read-out: Post-emergence efficacy ECHCG (100=total damage to plant; 0=no damage to plant)
Protocol: (§1) Seeds of a variety of test species were sown in standard soil in pots. After cultivation for 14 days (post-emergence) under controlled conditions in a glasshouse (at 24/16° C., day/night; 14 hours light; 65% humidity), the plants were sprayed with an aqueous spray solution derived from the dissolution of the technical active ingredient formula (I) in a small amount of acetone and a special solvent and emulsifier mixture referred to as IF50 (11.12% Emulsogen EL360 TM+44.44% N-methylpyrrolidone+44.44% Dowanol DPM glycol ether), to create a 50 g/l solution which was then diluted to required concentration using 0.25% or 1% Empicol ESC70 (Sodium lauryl ether sulphate)+1% ammonium sulphate as diluent.
(§2) The test plants were then grown in a glasshouse under controlled conditions (at 24/16° C., day/night; 14 hours light; 65% humidity) and watered twice daily. After 13 days the test was evaluated (100=total damage to plant; 0=no damage to plant).
(§3) Ipomoea hederacea (IPOHE), Euphorbia heterophylla (EPHHL), Chenopodium album (CHEAL), Amaranthus palmeri (AMAPA), Lolium perenne (LOLPE), Digitaria sanguinalis (DIGSA), Eleusine indica (ELEIN), Echinochloa crus-galli (ECHCG), Setaria faberi (SETFA)

[2] = test system: Digitaria sanguinalis (DIGSA); conditions: 312 h, Application rate 500 g/Ha, post-emergence spray, evaluated after 13 days, read-out: Post-emergence efficacy DIGSA (100=total damage to plant; 0=no damage to plant)
Protocol: as §1, §2, §3

Setaria faberi (SETFA) = conditions: 312 h, Application rate 500 g/Ha, post-emergence spray, evaluated after 13 days, read-out: Post-emergence efficacy SETFA (100=total damage to plant; 0=no damage to plant)
Protocol: as §1, §2, §3

[3] = test system: Amaranthus palmeri (AMAPA); conditions: 312 h, Application rate 500 g/Ha, post-emergence spray, evaluated after 13 days, read-out: Post-emergence efficacy AMAPA (100=total damage to plant; 0=no damage to plant)
Protocol: as §1, §2, §3

[4] = test system: Chenopodium album (CHEAL); conditions: 312 h, Application rate 500 g/Ha, post-emergence spray, evaluated after 13 days, read-out: Post-emergence efficacy CHEAL (100=total damage to plant; 0=no damage to plant)
Protocol: as §1, §2, §3

Eleusine indica (ELEIN) = conditions: 312 h, Application rate 500 g/Ha, post-emergence spray, evaluated after 13 days, read-out: Post-emergence efficacy ELEIN (100=total damage to plant; 0=no damage to plant)
Protocol: as §1, §2, §3

Lolium perenne (LOLPE) = conditions: 312 h, Application rate 500 g/Ha, post-emergence spray, evaluated after 13 days, read-out: Post-emergence efficacy LOLPE (100=total damage to plant; 0=no damage to plant)
Protocol: as §1, §2, §3

[5] = test system: Euphorbia heterophylla (EPHHL); conditions: 312 h, Application rate 500 g/Ha, post-emergence spray, evaluated after 13 days, read-out: Post-emergence efficacy EPHHL (100=total damage to plant; 0=no damage to plant)
Protocol: as §1, §2, §3

[6] = test system: Ipomoea hederacea (IPOHE); conditions: 312 h, Application rate 500 g/Ha, post-emergence spray, evaluated after 13 days, read-out: Post-emergence efficacy IPOHE (100=total damage to plant; 0=no damage to plant)
Protocol: as §1, §2, §3

Row | Structure (SMILES) | pest or weed control at 500 g/ha [1] | pest or weed control at 500 g/ha [2] | pest or weed control at 500 g/ha (Setaria faberi (SETFA)) | pest or weed control at 500 g/ha [3] | pest or weed control at 500 g/ha [4] | pest or weed control at 500 g/ha (Eleusine indica (ELEIN)) | pest or weed control at 500 g/ha (Lolium perenne (LOLPE)) | pest or weed control at 500 g/ha [5] | pest or weed control at 500 g/ha [6]
1 | CC(C)(NS(=O)(=O)CC[n+]1ccc(-c2nccs2)cn1)C(=O)O [Compound A18] | 10% | 0% | 20% | 30% | 50% | 0% | 0% | 10% | 0%
2 | CC(NC(=O)C[n+]1ccc(-c2ncsn2)cn1)C(=O)O (stereo not drawn) [Compound A19] | 80% | 80% | 90% | 100% | 90% | 80% | 40% | 90% | 50%
3 | CC(NC(=O)CC[n+]1ccc(-c2ncsn2)cn1)C(=O)O (stereo not drawn) [Compound A20] | 100% | 100% | 100% | 100% | 100% | 90% | 90% | 80% | 60%
4 | CC(C)(NC(=O)C[n+]1ccc(-c2ncsn2)cn1)C(=O)O [Compound A21] | 30% | 30% | 100% | 100% | 90% | 40% | 40% | 80% | 70%
5 | CC(NS(=O)(=O)CC[n+]1ccc(-c2ncsn2)cn1)C(=O)O (stereo not drawn) [Compound A22] | 80% | 100% | 100% | 100% | 50% | 100% | 60% | 20% | 50%
6 | O=C(O)CNC(=O)C[n+]1ccc(-c2ncsn2)cn1 [Compound A23] | 50% | 40% | 80% | 100% | 100% | 70% | 50% | 90% | 90%
7 | O=C(C[n+]1ccc(-c2ncsn2)cn1)NC1(C(=O)O)CC1 [Compound A24] | 80% | 100% | 80% | 100% | 90% | 70% | 50% | 90% | 90%
